From BindingDB's records for doi:10.1021/acschembio.7b00041 (Bc Cancer Agency, 2017)

Tests used:
Assay in all cases: ATPase enzyme assay
[1] = target: Eukaryotic initiation factor 4A-I (Homo sapiens, UniProt P60842)
Experimental: (§1) Inhibitory activity was assessed under the following conditions: 350 uM ATP/1.5 ug mL−1 RNA indicated by black; 35 uM ATP/1.5 ug mL−1 RNA indicated by red; 3.5 uM ATP/1.5 ug mL−1 RNA indicated by blue; 35 uM ATP/60 ug mL−1 RNA indicated by green (n = 4, mean +/- standard deviation).

[2] = target: U5 small nuclear ribonucleoprotein 200 kDa helicase (Homo sapiens, UniProt O75643)
Experimental: as §1

[3] = target: Eukaryotic initiation factor 4A-II (Homo sapiens, UniProt Q14240)
Experimental: as §1

[4] = target: T1, ATP-dependent RNA helicase DHX29 (Homo sapiens, UniProt Q7Z478)
T1 sequence (Q7Z478 whole entry): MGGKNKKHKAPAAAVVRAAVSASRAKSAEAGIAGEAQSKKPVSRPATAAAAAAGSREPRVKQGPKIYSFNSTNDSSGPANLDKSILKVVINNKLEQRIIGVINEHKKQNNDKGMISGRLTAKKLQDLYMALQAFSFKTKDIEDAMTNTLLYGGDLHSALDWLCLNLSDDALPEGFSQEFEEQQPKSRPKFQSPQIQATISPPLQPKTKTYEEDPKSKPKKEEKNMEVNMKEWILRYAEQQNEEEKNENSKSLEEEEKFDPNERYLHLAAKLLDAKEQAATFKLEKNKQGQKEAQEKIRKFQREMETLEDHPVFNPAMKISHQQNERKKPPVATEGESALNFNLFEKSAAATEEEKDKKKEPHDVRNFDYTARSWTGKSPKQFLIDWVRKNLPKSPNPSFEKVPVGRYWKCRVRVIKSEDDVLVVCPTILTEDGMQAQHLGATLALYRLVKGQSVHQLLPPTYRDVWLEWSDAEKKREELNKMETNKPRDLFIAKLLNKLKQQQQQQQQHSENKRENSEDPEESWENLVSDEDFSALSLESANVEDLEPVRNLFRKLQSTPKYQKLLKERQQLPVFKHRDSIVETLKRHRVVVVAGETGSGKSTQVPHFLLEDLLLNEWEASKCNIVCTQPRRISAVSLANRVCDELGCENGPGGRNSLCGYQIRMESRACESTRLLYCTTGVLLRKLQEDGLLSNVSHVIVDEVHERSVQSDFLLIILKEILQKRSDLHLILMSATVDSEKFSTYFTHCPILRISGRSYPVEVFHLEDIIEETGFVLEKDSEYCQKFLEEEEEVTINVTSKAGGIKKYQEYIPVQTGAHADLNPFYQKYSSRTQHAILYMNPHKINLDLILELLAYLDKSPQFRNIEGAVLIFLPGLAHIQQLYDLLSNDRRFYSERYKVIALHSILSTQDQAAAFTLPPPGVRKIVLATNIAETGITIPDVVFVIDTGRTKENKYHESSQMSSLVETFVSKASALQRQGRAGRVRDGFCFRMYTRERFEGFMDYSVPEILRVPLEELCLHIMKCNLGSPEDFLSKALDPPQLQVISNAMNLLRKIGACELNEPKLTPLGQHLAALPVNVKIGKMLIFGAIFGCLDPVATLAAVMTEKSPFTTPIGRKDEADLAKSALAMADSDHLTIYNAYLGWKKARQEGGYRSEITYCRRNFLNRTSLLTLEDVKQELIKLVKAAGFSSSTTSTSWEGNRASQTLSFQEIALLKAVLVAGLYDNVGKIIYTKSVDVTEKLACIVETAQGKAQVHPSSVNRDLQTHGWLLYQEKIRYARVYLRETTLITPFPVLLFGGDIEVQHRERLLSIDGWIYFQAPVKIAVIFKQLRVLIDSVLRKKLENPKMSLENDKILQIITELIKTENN
Experimental: as §1

[5] = target: Eukaryotic initiation factor 4A-III (Homo sapiens, UniProt P38919)
Experimental: as §1

Sequence of Eukaryotic initiation factor 4A-II (Q14240 whole entry): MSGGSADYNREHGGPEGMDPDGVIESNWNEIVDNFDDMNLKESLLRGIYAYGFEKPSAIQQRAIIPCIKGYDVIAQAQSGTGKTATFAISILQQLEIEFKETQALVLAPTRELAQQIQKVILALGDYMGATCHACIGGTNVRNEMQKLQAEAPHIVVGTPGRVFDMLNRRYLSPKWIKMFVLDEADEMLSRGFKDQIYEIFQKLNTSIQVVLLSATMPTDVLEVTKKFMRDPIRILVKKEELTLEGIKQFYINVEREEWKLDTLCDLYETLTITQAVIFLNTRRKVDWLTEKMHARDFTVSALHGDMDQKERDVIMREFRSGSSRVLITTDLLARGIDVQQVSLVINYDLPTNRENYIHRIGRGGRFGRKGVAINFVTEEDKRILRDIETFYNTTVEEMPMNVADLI
Sequence of Eukaryotic initiation factor 4A-I (P60842 whole entry): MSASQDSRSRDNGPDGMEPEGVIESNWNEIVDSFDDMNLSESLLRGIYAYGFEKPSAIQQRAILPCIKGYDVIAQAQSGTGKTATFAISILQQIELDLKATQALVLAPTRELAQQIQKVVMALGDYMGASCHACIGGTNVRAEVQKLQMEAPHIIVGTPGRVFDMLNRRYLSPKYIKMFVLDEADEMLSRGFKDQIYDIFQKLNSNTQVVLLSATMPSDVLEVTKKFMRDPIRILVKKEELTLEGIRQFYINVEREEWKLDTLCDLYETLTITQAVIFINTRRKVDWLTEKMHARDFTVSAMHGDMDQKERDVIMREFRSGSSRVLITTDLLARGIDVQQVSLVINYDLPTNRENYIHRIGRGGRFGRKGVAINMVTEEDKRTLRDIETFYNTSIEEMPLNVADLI
Sequence of Eukaryotic initiation factor 4A-III (P38919 whole entry): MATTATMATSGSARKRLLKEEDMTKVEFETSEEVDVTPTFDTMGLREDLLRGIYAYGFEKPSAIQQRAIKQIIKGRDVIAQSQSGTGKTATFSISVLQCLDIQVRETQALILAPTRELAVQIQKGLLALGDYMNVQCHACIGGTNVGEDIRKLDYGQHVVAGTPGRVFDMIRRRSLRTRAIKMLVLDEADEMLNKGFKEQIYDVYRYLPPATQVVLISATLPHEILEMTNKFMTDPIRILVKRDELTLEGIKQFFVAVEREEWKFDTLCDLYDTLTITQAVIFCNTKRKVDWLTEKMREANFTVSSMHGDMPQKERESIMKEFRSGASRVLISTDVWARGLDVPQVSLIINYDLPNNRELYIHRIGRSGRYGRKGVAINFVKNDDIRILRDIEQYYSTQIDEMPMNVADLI
Sequence of U5 small nuclear ribonucleoprotein 200 kDa helicase (O75643 whole entry): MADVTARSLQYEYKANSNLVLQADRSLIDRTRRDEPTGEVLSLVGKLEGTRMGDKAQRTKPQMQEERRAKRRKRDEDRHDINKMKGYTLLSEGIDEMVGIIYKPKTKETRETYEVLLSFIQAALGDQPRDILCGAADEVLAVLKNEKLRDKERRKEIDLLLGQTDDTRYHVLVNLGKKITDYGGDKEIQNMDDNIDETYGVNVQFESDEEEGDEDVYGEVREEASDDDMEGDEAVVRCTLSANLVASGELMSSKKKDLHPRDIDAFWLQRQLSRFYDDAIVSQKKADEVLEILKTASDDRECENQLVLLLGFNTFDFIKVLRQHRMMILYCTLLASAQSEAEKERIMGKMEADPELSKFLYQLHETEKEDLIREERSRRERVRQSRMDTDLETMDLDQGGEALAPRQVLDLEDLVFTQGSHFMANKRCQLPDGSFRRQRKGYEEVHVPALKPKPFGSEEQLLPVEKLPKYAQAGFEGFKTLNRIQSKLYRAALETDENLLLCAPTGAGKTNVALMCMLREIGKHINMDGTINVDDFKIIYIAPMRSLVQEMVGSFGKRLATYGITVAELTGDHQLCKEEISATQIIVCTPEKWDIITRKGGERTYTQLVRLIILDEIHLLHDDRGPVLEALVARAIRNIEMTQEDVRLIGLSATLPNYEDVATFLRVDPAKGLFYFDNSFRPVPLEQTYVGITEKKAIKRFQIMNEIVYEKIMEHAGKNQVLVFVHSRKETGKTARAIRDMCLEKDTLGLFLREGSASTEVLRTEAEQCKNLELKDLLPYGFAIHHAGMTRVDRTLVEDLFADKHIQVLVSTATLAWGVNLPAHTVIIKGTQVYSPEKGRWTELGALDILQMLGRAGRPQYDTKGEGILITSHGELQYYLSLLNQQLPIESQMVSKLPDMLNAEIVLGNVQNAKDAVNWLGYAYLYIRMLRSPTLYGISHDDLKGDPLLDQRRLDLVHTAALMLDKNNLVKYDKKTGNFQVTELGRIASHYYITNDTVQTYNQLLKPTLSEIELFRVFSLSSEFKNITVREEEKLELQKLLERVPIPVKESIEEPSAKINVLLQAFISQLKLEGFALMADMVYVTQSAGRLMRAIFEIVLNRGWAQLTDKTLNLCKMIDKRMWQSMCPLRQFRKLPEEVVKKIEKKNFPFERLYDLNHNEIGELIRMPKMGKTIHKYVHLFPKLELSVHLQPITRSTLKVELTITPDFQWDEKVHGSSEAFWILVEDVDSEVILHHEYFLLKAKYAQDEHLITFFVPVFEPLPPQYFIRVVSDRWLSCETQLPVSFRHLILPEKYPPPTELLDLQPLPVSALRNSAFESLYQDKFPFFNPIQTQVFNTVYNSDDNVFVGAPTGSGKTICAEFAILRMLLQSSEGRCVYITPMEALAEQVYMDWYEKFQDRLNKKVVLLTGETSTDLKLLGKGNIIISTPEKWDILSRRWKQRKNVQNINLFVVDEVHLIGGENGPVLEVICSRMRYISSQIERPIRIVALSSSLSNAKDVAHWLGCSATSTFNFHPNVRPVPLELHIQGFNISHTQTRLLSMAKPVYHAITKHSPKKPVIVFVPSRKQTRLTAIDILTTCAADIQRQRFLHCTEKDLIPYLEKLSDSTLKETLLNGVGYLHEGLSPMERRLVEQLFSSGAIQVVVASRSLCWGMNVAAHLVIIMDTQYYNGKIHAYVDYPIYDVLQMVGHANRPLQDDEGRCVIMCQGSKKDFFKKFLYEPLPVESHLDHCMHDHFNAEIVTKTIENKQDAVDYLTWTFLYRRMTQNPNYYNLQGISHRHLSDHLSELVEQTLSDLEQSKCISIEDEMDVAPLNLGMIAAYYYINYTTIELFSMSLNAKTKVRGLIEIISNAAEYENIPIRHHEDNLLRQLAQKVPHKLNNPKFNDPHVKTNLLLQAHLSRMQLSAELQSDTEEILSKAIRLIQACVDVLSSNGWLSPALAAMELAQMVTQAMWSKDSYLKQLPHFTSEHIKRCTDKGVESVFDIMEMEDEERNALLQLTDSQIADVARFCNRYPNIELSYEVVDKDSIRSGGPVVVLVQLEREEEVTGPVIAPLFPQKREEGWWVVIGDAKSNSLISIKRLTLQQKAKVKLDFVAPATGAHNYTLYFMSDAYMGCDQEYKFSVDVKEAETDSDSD

IC50 [1]: > 100 µM | IC50 [2]: > 100 µM | IC50 [3]: > 100 µM | IC50 [4]: > 100 µM | IC50 [5]: 0.11 µM
Structure (SMILES): O=C(c1cnn2cc(Br)ccc12)N1CCN(C(=O)c2ccc(Br)cc2)[C@@H](c2ccc(Cl)cc2)C1 [eIF4A3 inhibitor, 2]
